Reference: US4550186A, “Binuclear copper (II) carboxylates formed from amine-carboxyboranes” (Duke University, priority 1983, dated 1985)

Columns and labels:
Acetyl CoA Carboxylase = molecular target: T1, Acetyl CoA Carboxylase (Mus musculus, UniProt Q5SWU9); assay: In vivo liver enzyme study: acetyl CoA carboxylase; conditions: CF1 liver after 16 days i.p.
T1 construct: 10% homogenates of CF1 male mouse liver; from tissue; host or cells: CF1 male mouse liver, 10% homogenate
Procedure: (§1) In vitro enzymatic studies were determined using 10% homogenates of CF1 male mouse liver with 50-200 μM of test drugs. In vivo enzymatic studies were determined using 10% homogenates of liver from CF1 male mice obtained after administering the agents for 16 days at a dose ranging from 2.5-20 mg/kg/day intraperitoneally. The liver homogenates for both in vitro and in vivo studies were prepared in 0.25M sucrose and 0.001M (ethylenedinitrilo)tetraacetic acid. Acetyl coenzyme A synthetase and adenosine triphosphate dependent citrate lyase activities were determined spectrophotometrically at 540 nm as the hydroxylamate of acetyl coenzyme A formed after 30 min at 37° C. Mitochondrial citrate exchange was determined by the procedure of Robinson et al [Eur. J. Biochem., 216, 63 (1970)] using ^14 C-sodium bicarbonate (41 mCi/mmol) incorporated into mitochondrial ^14 C-citrate after isolating rat mitochondria (9000 g×10 min) from the homogenates. The exchanges of the ^14 C-citrate were determined after incubating the mitochondrial fraction which was loaded with labeled citrate and test drugs for 10 min. Then the radioactivity was measured in the mitochondrial and supernantant fractions in scintillation fluid and expressed as a percentage. Cholesterol side chain oxidation was determined by the method of Kritchevsky and Tepper [Artherosclerosis, 18, 93 (1973)] using (26-^14 C) cholesterol (50 mCi/mmol) and mitochondria isolated from rat liver homogenates. […] Fatty acid synthetase activity was determined by the method of Brady et al [J. Biol. Chem., 235, 3093 (1960)] using [2-^14 C] malonyl-coenzyme A (37.5 mCi/mmol) which was incorporated into newly synthesized fatty acids that were extracted with ether and counted. Acyl transferase activity was determined with glycerol-3phosphate [L-2-^3 H(N)] […] HCl and counted. Phosphatidate phosphohydrolase activity was measured as the inorganic phosphate released after 30 min from phosphatidic acid by the method of Mavis et al [J. Lipid Res., 19, 467 (1978)]. […]

[1] = system: Phosphatidate Phosphohydrolase; assay: In vivo liver enzyme study: phosphatidate phosphohydrolase; parameters: species or system mouse; conditions: for Phosphatidate Phosphohydrolase: CF1 liver after 16 days i.p.
Procedure: In vitro enzymatic studies were determined using 10% homogenates of CF1 male mouse liver with 50-200 μM of test drugs. In vivo enzymatic studies were determined using 10% homogenates of liver from CF1 male mice obtained after administering the agents for 16 days at a dose ranging from 2.5-20 mg/kg/day intraperitoneally. The liver homogenates for both in vitro and in vivo studies were prepared in 0.25M sucrose and 0.001M (ethylenedinitrilo)tetraacetic acid. Acetyl coenzyme A synthetase and adenosine triphosphate dependent citrate lyase activities were determined spectrophotometrically at 540 nm as the hydroxylamate of acetyl coenzyme A formed after 30 min at 37° C. Mitochondrial citrate exchange was determined by the procedure of Robinson et al [Eur. J. Biochem., 216, 63 (1970)] using ^14 C-sodium bicarbonate (41 mCi/mmol) incorporated into mitochondrial ^14 C-citrate after isolating rat mitochondria (9000 g×10 min) from the homogenates. The exchanges of the ^14 C-citrate were determined after incubating the mitochondrial fraction which was loaded with labeled citrate and test drugs for 10 min. Then the radioactivity was measured in the mitochondrial and supernantant fractions in scintillation fluid and expressed as a percentage. Cholesterol side chain oxidation was determined by the method of Kritchevsky and Tepper [Artherosclerosis, 18, 93 (1973)] using (26-^14 C) cholesterol (50 mCi/mmol) and mitochondria isolated from rat liver homogenates. After 18 hr incubation at 37° C. with test drugs, the generated ^14 CO2 was trapped in the center well in {2-(2-(p-1,1,3,3,-tetramethylbutylcresoxy)ethoxy]ethyl } dimethylbenzylammonium hydroxide and counted. 3-Hydroxy-3-methylglutaryl coenzyme A reductase (HMG coenzyme A reductase) activity was measured using 1-^14 C-acetate (56 mCi/mmol) and a post-mitochondrial supernatant (9000 g×20 min) incubated for 60 min at 37° C. [Wada et al, J. Biochem. (Tokyo), 65 71 (1969)]. The digitonide derivative of cholesterol was isolated and counted. Acetyl coenzyme A carboxylase activity was measured by the method of Greenspan and Lowenstein [J. Biol. Chem., 243, 6273 (1968)]. […] Fatty acid synthetase activity was determined by the method of Brady et al [J. Biol. Chem., 235, 3093 (1960)] using [2-^14 C] malonyl-coenzyme A (37.5 mCi/mmol) which was incorporated into newly synthesized fatty acids that were extracted with ether and counted. Acyl transferase activity was determined with glycerol-3phosphate [L-2-^3 H(N)] […] HCl and counted. Phosphatidate phosphohydrolase activity was measured as the inorganic phosphate released after 30 min from phosphatidic acid by the method of Mavis et al [J. Lipid Res., 19, 467 (1978)]. The released inorganic phosphate after development with ascorbic acid and ammonium molybdate was determined at 820 nm. […]

CF1 male mice = assay: Acute toxicity (LD50); type: in vivo, mouse; conditions: CF1 mice intraperitoneally, single dose, 7 days
Procedure: The acute toxicity (LD50 values) was determined in CF1 male mice by administering test drugs intraperitoneally from 5-50 mg/kg as a single dose. The number of deaths recorded over 7 days in the group was determined for each dosage.

[2] = molecular target: T2, messenger ribonucleic acid polymerase (Mus musculus, UniProt P08775+Q8CFI7); assay: In vitro messenger ribonucleic acid polymerase activity; type: biochemical; conditions: 0.25 to 1.0 mM
T2 construct: enzymes isolated from nuclei; endogenous in cells; host or cells: Ehrlich ascites tumor cell nuclei, ammonium sulfate fraction
Procedure: (§2) CF1 male mice (~30 g) were implanted with 2×10^6 Ehrlich ascites tumor cells, intraperitoneally on Day 0. Compound I was suspended by homogenation in 0.05% polysorbate.80-water and administered intraperitoneally at 10 and 20 mg/kg for 9 days to determine its effectiveness for inhibition of tumor growth. Mice were sacrificed on Day 10, and the ascites fluid was collected from the peritoneal cavity. The volume and ascrit (packed cell volume) were determined for each animal and the percent inhibition of tumor growth was calculated. For the metabolic studies, mice were treated on Days 8 and 9 with 10 mg/kg of Compound I, intraperitoneally. The animal was sacrificed on Day 10 and the ascites fluid harvested. The in vitro metabolic studies were performed at […] final concentration of Compound I.
In vitro and in vivo nuclear deoxyribonucleic acid polymerase activity was determined on isolated Ehrlich ascites cell nuclei. The incubation was that described by Sawada et al [Can. Res., 34, 3341 (1974)] except that [methyl-^3 H] deoxythymidine triphosphate (82.4 Ci/mmol) was used. The acid insoluble nucleic acid was collected on GF/F filters and counted. Nuclear ribonucleic acid polymerase activities were determined on enzymes isolated from nuclei. […] The acid insoluble ribonucleic acid was collected on nitrocellulose filters and counted.

[3] = system: Mitochondrial Citrate Exchange; assay: In vitro liver enzyme study: mitochondrial citrate exchange; type: biochemical, mouse; conditions: in vitro CF1 liver, 10 min
Procedure: as §1

[4] = system: Ehrlich ascites carcinoma; assay: Ehrlich ascites carcinoma growth in CF1 male mice; type: in vivo, mouse; conditions: for No. of Animals Survived on Day 10: 6 animals; for Ascrit Packed Cell Vol. / Vol(ml) Ascites Fluid: Day 10; for Percent Inhibition: Ehrlich ascites carcinoma growth
Procedure: as §2

Ehrlich ascites cells = assay: Number of cells in ascites fluid; type: in vivo, mouse
Procedure: as §2

“{Cu[(CH3)3 N.BH2 CO2 ]2.(CH3)3 N.BH2 COOH} [Compound I]” was tested, and the “Acetyl CoA Carboxylase” value (Acetyl CoA Carboxylase; 2.5 mg/kg) was 103 ± 6% of control, the “Acetyl CoA Carboxylase” value (Acetyl CoA Carboxylase; 5.0 mg/kg) was 95% of control and the “Acetyl CoA Carboxylase” value (Acetyl CoA Carboxylase; 10 mg/kg) was 120 ± 7% of control. For the same substance, the “Phosphatidate Phosphohydrolase” value ([1]; 2.5 mg/kg) was 55 ± 5% of control, the “Phosphatidate Phosphohydrolase” value ([1]; 5.0 mg/kg) was 53 ± 5% of control and the “Phosphatidate Phosphohydrolase” value ([1]; 10 mg/kg) was 18% of control. For the same substance, the “Phosphatidate Phosphohydrolase activity reduction” value ([1]; in vivo, mice 16 days, 10 mg/kg/day) was 82%, the LD50 (CF1 male mice) was 39.2 mg/kg and the “messenger ribonucleic acid polymerase inhibition” value [2] was “not inhibited”. For the same substance, the “Mitochondrial Citrate Exchange” value ([3]; 50 μM) was 105 ± 6 Percent Control, the “Mitochondrial Citrate Exchange” value ([3]; 100 μM) was 104 ± 6 Percent Control and the “Mitochondrial Citrate Exchange” value ([3]; 200 μM) was 103 ± 7 Percent Control. The “No. of Animals Survived on Day 10” value ([4]; 10 mg/kg/day i.p.) was 5, the “Ascrit Packed Cell Vol.” value ([4]; 10 mg/kg/day i.p.) was 18.5 and the “Vol(ml) Ascites Fluid” value ([4]; 10 mg/kg/day i.p.) was 0.04 mL. For the same substance, the “Percent Inhibition” value ([4]; 10 mg/kg/day i.p.) was 99.7%, the “No. of Animals Survived on Day 10” value ([4]; 20 mg/kg/day i.p.) was 6 and the “Ascrit Packed Cell Vol.” value ([4]; 20 mg/kg/day i.p.) was 34.0. The “Vol(ml) Ascites Fluid” value ([4]; 20 mg/kg/day i.p.) was 0.32 mL, the “Percent Inhibition” value ([4]; 20 mg/kg/day i.p.) was 96.2% and the “number of cells in the ascites fluid” value (Ehrlich ascites cells; after drug administration for two days (control 226×10^6 /ml)) was 1.02e+08 mL⁻¹. The “Number of cells × 10^6 /ml ascites fluid” value (Ehrlich ascites cells; in vivo, 10 mg/kg/day I.P. on Days 8 and 9) was 45 ± 4 % Control.
